Source: ChEMBL document CHEMBL4819077, “Design, synthesis, and biological evaluation of diosgenin-indole derivatives as dual-functional agents for the treatment of Alzheimer's disease” (Eur J Med Chem, 2021)
Active and inactive are the calls of the source. The rule behind the calls is not given here.

Columns and labels:
Mus musculus [1] = experiment: Improvement in learning and spatial memory in icv infused amyloid beta (1 to 42)-induced ICR mouse model of Alzheimer's disease assessed as improved target quadrant exploration time at to 2 mg/kg, po administered daily for 7 days starting from 7 days post surgery by Morris water maze test; type: functional, organism-based; conditions: time 7.0 day
Mus musculus [2] = experiment: Neuroprotection against icv infused amyloid beta (1 to 42)-induced ICR mouse model of Alzheimer's disease assessed as rescue of pyknotic nucleus in hippocampal at to 2 mg/kg, po administered daily for 7 days by HE staining; type: functional, organism-based; conditions: time 7.0 day
Mus musculus [3] = experiment: Neuroprotection against icv infused amyloid beta (1 to 42)-induced ICR mouse model of Alzheimer's disease assessed as rescue of decrease neuronal cells in hippocampal at to 2 mg/kg, po administered daily for 7 days by HE staining; type: functional, organism-based; conditions: time 7.0 day
SH-SY5Y [4] = experiment: Neuroprotection against Abeta-induced oxidative stress in human SH-SY5Y cells assessed as cell protection at 10 uM incubated for 2 hr before Abeta(1-42) challenge and measured after 24 hrs by MTT assay; type: functional; conditions: time 26 hrs
SH-SY5Y [5] = experiment: Cytotoxicity against human SH-SY5Y cells assessed as reduction in cell viability measured after 24 hrs by MTT assay; type: cell-based
SH-SY5Y [6] = experiment: Neuroprotection against H202-induced oxidative stress in human SH-SY5Y cells assessed as cell protection at 10 uM preincubated for 2 hr before H202 challenge and measured after 24 hrs by MTT assay; type: functional
SH-SY5Y [7] = experiment: Neuroprotection against 6-OHDA-induced oxidative stress in human SH-SY5Y cells assessed as cell protection at 10 uM preincubated for 2 hr before 6-OHDA challenge and measured after 24 hrs by MTT assay; type: functional; conditions: time 26 hrs

SMILES | Activity (Mus musculus [1]) | Activity (Mus musculus [2]) | Activity (Mus musculus [3]) | Activity (SH-SY5Y [4]) | Activity (SH-SY5Y [5]) | Activity (SH-SY5Y [6]) | Activity (SH-SY5Y [7])
COc1cc2c(cc1OC)C(=O)C(CC1CCN(Cc3ccccc3)CC1)C2 (configuration not stated) | Active | Active | Active |  |  |  | 
C[C@@H]1CC[C@@]2(OC1)O[C@H]1C[C@H]3[C@@H]4CCc5cc(OC(=O)Cc6c[nH]c7ccccc67)ccc5[C@H]4CC[C@]3(C)[C@H]1[C@@H]2C |  |  |  | 20.6% | Non-Toxic | 18.4% | 61.1%
COc1ccc2c(CC(=O)Oc3ccc4c(c3)CC[C@@H]3[C@@H]4CC[C@]4(C)[C@@H]5[C@H](C[C@@H]34)O[C@]3(CC[C@@H](C)CO3)[C@H]5C)c[nH]c2c1 |  |  |  |  | Toxic |  | 
Cc1ccc2[nH]cc(CC(=O)Oc3ccc4c(c3)CC[C@@H]3[C@@H]4CC[C@]4(C)[C@@H]5[C@H](C[C@@H]34)O[C@]3(CC[C@@H](C)CO3)[C@H]5C)c2c1 |  |  |  |  | Non-Toxic | 14.6% | 18.8%
C[C@@H]1CC[C@@]2(OC1)O[C@H]1C[C@H]3[C@@H]4CCc5cc(OC(=O)NCCc6c[nH]c7ccc(Cl)cc67)ccc5[C@H]4CC[C@]3(C)[C@H]1[C@@H]2C |  |  |  |  | Non-Toxic | 38.6% | 15.8%
C[C@@H]1CC[C@@]2(OC1)O[C@H]1C[C@H]3[C@@H]4CCc5cc(OC(=O)NCCc6c[nH]c7cc(F)ccc67)ccc5[C@H]4CC[C@]3(C)[C@H]1[C@@H]2C |  |  |  | 42.5% | Non-Toxic | 35.8% | 40.2%
COc1ccc2[nH]c(C)c(CC(=O)Oc3ccc4c(c3)CC[C@@H]3[C@@H]4CC[C@]4(C)[C@@H]5[C@H](C[C@@H]34)O[C@]3(CC[C@@H](C)CO3)[C@H]5C)c2c1 |  |  |  | 26.9% | Non-Toxic | 37.7% | 42.3%
C[C@@H]1CC[C@@]2(OC1)O[C@H]1C[C@H]3[C@@H]4CC=C5C[C@@H](O)CC[C@]5(C)[C@H]4CC[C@]3(C)[C@H]1[C@@H]2C [DISOGENIN] |  |  |  | 7.4% |  | 9.2% | 14.2%
COc1ccc2[nH]cc(CC(=O)Oc3ccc4c(c3)CC[C@@H]3[C@@H]4CC[C@]4(C)[C@@H]5[C@H](C[C@@H]34)O[C@]3(CC[C@@H](C)CO3)[C@H]5C)c2c1 |  |  |  | 30.4% | Non-Toxic | 26.9% | 57.4%
C[C@@H]1CC[C@@]2(OC1)O[C@H]1C[C@H]3[C@@H]4CCc5cc(OC(=O)NCCc6c[nH]c7ccc(Br)cc67)ccc5[C@H]4CC[C@]3(C)[C@H]1[C@@H]2C |  |  |  |  | Non-Toxic | 29.6% | 27.9%
C[C@@H]1CC[C@@]2(OC1)O[C@H]1C[C@H]3[C@@H]4CCc5cc(OC(=O)NCCc6c[nH]c7ccccc67)ccc5[C@H]4CC[C@]3(C)[C@H]1[C@@H]2C |  |  |  | 42.7% | Non-Toxic | 21.5% | 40.6%
COc1ccc2c(CCNC(=O)Oc3ccc4c(c3)CC[C@@H]3[C@@H]4CC[C@]4(C)[C@@H]5[C@H](C[C@@H]34)O[C@]3(CC[C@@H](C)CO3)[C@H]5C)c[nH]c2c1 |  |  |  | 43.7% | Non-Toxic | 50% | 47.7%
Cc1ccc2[nH]cc(CCNC(=O)Oc3ccc4c(c3)CC[C@@H]3[C@@H]4CC[C@]4(C)[C@@H]5[C@H](C[C@@H]34)O[C@]3(CC[C@@H](C)CO3)[C@H]5C)c2c1 |  |  |  | 34.2% | Non-Toxic | 49.1% | 27.7%
Cc1[nH]c2ccccc2c1CCNC(=O)Oc1ccc2c(c1)CC[C@@H]1[C@@H]2CC[C@]2(C)[C@@H]3[C@H](C[C@@H]12)O[C@]1(CC[C@@H](C)CO1)[C@H]3C |  |  |  |  | Non-Toxic | 31.1% | 34.4%
Cc1[nH]c2ccccc2c1CC(=O)Oc1ccc2c(c1)CC[C@@H]1[C@@H]2CC[C@]2(C)[C@@H]3[C@H](C[C@@H]12)O[C@]1(CC[C@@H](C)CO1)[C@H]3C |  |  |  |  | Non-Toxic | 22.7% | 30.5%
C[C@@H]1CC[C@@]2(OC1)O[C@H]1C[C@H]3[C@@H]4CCc5cc(OC(=O)Cc6c[nH]c7ccc(Br)cc67)ccc5[C@H]4CC[C@]3(C)[C@H]1[C@@H]2C |  |  |  |  | Non-Toxic | 15.8% | 4.2%
C[C@@H]1CC[C@@]2(OC1)O[C@H]1C[C@H]3[C@@H]4CCc5cc(OC(=O)Cc6c[nH]c7ccc(F)cc67)ccc5[C@H]4CC[C@]3(C)[C@H]1[C@@H]2C |  |  |  |  | Non-Toxic | 13.3% | 20.2%
COc1ccc2[nH]cc(CC(C)NC(=O)Oc3ccc4c(c3)CC[C@@H]3[C@@H]4CC[C@]4(C)[C@@H]5[C@H](C[C@@H]34)O[C@]3(CC[C@@H](C)CO3)[C@H]5C)c2c1 (some centres not stated) |  |  |  | 37.2% | Non-Toxic | 43.6% | 25.8%
C[C@@H]1CC[C@@]2(OC1)O[C@H]1C[C@H]3[C@@H]4CCc5cc(OC(=O)Cc6c[nH]c7cc(Cl)ccc67)ccc5[C@H]4CC[C@]3(C)[C@H]1[C@@H]2C |  |  |  |  | Non-Toxic | 13.4% | 10.9%
C[C@@H]1CC[C@@]2(OC1)O[C@H]1C[C@H]3[C@@H]4CCc5cc(OC(=O)NCCc6c[nH]c7ccc(F)cc67)ccc5[C@H]4CC[C@]3(C)[C@H]1[C@@H]2C |  |  |  | 44.8% | Non-Toxic | 43.4% | 47.7%
